Legend:
Assay type in all cases: in vivo
[1] = system: SETVI, Green foxtail, Setaria viridis, (L.)Beau; assay: Postemergence herbicidal evaluation (Example 147); conditions: rating scale 0-9, two to three weeks after treatment
Procedure, shortened: (§1)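 Compound is applied postemergence at approximately 0.016–0.032 kg/ha through a nozzle at 40 psi, using 80/20 acetone/water with 1.0% SUN-IT II. Treated seedlings, grown about two weeks beforehand, stay in the greenhouse for two to three weeks before visual 0-9 scoring.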

[2] = system: ALOMY, Blackgrass, Alopecurus myosuroides; assay: Postemergence herbicidal evaluation (Example 147); conditions: rating scale 0-9, two to three weeks after treatment
Procedure, shortened: as §1

[3] = system: GLXMA, Soybean, Glycine max, (L.) Merr.; assay: Postemergence herbicidal evaluation (Example 147); conditions: rating scale 0-9, two to three weeks after treatment
Procedure, shortened: as §1

[4] = system: ECHCG, Barnyardgrass, Echinochloa crusgalli, (L.)Beau; assay: Postemergence herbicidal evaluation (Example 147); conditions: rating scale 0-9, two to three weeks after treatment
Procedure, shortened: as §1

[5] = system: TRZAW, Winter wheat, Tritium Aestivum, L. (Winter); assay: Postemergence herbicidal evaluation (Example 147); conditions: rating scale 0-9, two to three weeks after treatment
Procedure, shortened: as §1

[6] = system: ABUTH, Velvetleaf, Abutilon theophrasti, Medic.; assay: Postemergence herbicidal evaluation (Example 147); conditions: rating scale 0-9, two to three weeks after treatment
Procedure, shortened: as §1

[7] = system: XANST, Cocklebur, Xanthium strumariam; assay: Postemergence herbicidal evaluation (Example 147); conditions: rating scale 0-9, two to three weeks after treatment
Procedure, shortened: as §1

[8] = system: DIGSA, Crabgrass, (Hairy) L, Digitaria sanguinalis, (L)Scop; assay: Postemergence herbicidal evaluation (Example 147); conditions: rating scale 0-9, two to three weeks after treatment
Procedure, shortened: as §1

[9] = system: CHEAL, Lambsquarters, Chenopodium album, L. Common; assay: Postemergence herbicidal evaluation (Example 147); conditions: rating scale 0-9, two to three weeks after treatment
Procedure, shortened: as §1

[10] = system: IPOHE, Morningglory, Ivyleaf, Ipomoea hederacea, (L)Jacq.; assay: Postemergence herbicidal evaluation (Example 147); conditions: rating scale 0-9, two to three weeks after treatment
Procedure, shortened: as §1

[11] = system: AMBEL, Ragweed, Common, Ambrosia artemiisifolia, L.; assay: Postemergence herbicidal evaluation (Example 147); conditions: rating scale 0-9, two to three weeks after treatment
Procedure, shortened: as §1

[12] = system: ZEAMX, Field corn, Zea mays L.; assay: Postemergence herbicidal evaluation (Example 147); conditions: rating scale 0-9, two to three weeks after treatment
Procedure, shortened: as §1

[13] = system: SETVI, Green foxtail, Setaria viridis, (L.)Beau; assay: Preemergence herbicidal evaluation (Example 148); conditions: rating scale 0-9, two to four weeks after treatment
Procedure, shortened: (§2)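 Sow seed–soil mix onto ~1 in soil; spray aqueous acetone compound solution (~0.125–0.250 kg/ha equivalent); keep on greenhouse benches under standard watering; score injury visually after 2–4 weeks.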

[14] = system: ALOMY, Blackgrass, Alopecurus myosuroides; assay: Preemergence herbicidal evaluation (Example 148); conditions: rating scale 0-9, two to four weeks after treatment
Procedure, shortened: as §2

[15] = system: GLXMA, Soybean, Glycine max, (L.) Merr.; assay: Preemergence herbicidal evaluation (Example 148); conditions: rating scale 0-9, two to four weeks after treatment
Procedure, shortened: as §2

[16] = system: ECHCG, Barnyardgrass, Echinochloa crusgalli, (L.)Beau; assay: Preemergence herbicidal evaluation (Example 148); conditions: rating scale 0-9, two to four weeks after treatment
Procedure, shortened: as §2

[17] = system: TRZAW, Winter wheat, Tritium Aestivum, L. (Winter); assay: Preemergence herbicidal evaluation (Example 148); conditions: rating scale 0-9, two to four weeks after treatment
Procedure, shortened: as §2

[18] = system: ABUTH, Velvetleaf, Abutilon theophrasti, Medic.; assay: Preemergence herbicidal evaluation (Example 148); conditions: rating scale 0-9, two to four weeks after treatment
Procedure, shortened: as §2

[19] = system: XANST, Cocklebur, Xanthium strumariam; assay: Preemergence herbicidal evaluation (Example 148); conditions: rating scale 0-9, two to four weeks after treatment
Procedure, shortened: as §2

[20] = system: DIGSA, Crabgrass, (Hairy) L, Digitaria sanguinalis, (L)Scop; assay: Preemergence herbicidal evaluation (Example 148); conditions: rating scale 0-9, two to four weeks after treatment
Procedure, shortened: as §2

[21] = system: CHEAL, Lambsquarters, Chenopodium album, L. Common; assay: Preemergence herbicidal evaluation (Example 148); conditions: rating scale 0-9, two to four weeks after treatment
Procedure, shortened: as §2

[22] = system: IPOHE, Morningglory, Ivyleaf, Ipomoea hederacea, (L)Jacq.; assay: Preemergence herbicidal evaluation (Example 148); conditions: rating scale 0-9, two to four weeks after treatment
Procedure, shortened: as §2

[23] = system: AMBEL, Ragweed, Common, Ambrosia artemiisifolia, L.; assay: Preemergence herbicidal evaluation (Example 148); conditions: rating scale 0-9, two to four weeks after treatment
Procedure, shortened: as §2

[24] = system: ZEAMX, Field corn, Zea mays L.; assay: Preemergence herbicidal evaluation (Example 148); conditions: rating scale 0-9, two to four weeks after treatment
Procedure, shortened: as §2

## COc1ccc(CNS(=O)(=O)NC(=O)c2cc(-n3c(=O)cc(C(F)(F)F)n(C)c3=O)c(F)cc2Cl)cc1 [Example 82]
[1]; rate 0.016 kg/ha
  Postemergence herbicidal rating SETVI: 6.0
[1]; rate 0.032 kg/ha
  Postemergence herbicidal rating SETVI: 7.0
[2]; rate 0.016 kg/ha
  Postemergence herbicidal rating ALMOY: 1.0
[2]; rate 0.032 kg/ha
  Postemergence herbicidal rating ALMOY: 2.0
[3]; rate 0.016 kg/ha
  Postemergence herbicidal rating GLXMA: 8.0
[3]; rate 0.032 kg/ha
  Postemergence herbicidal rating GLXMA: 8.5
[4]; rate 0.016 kg/ha
  Postemergence herbicidal rating ECHCG: 7.0
[4]; rate 0.032 kg/ha
  Postemergence herbicidal rating ECHCG: 8.0
[5]; rate 0.016 kg/ha
  Postemergence herbicidal rating TRZAW: 5.5
[5]; rate 0.032 kg/ha
  Postemergence herbicidal rating TRZAW: 6.0
[6]; rate 0.016 kg/ha
  Postemergence herbicidal rating ABUTH: 9.0
[6]; rate 0.032 kg/ha
  Postemergence herbicidal rating ABUTH: 9.0
[7]; rate 0.016 kg/ha
  Postemergence herbicidal rating XANST: 9.0
[7]; rate 0.032 kg/ha
  Postemergence herbicidal rating XANST: 9.0
[8]; rate 0.016 kg/ha
  Postemergence herbicidal rating DIGSA: 3.0
[8]; rate 0.032 kg/ha
  Postemergence herbicidal rating DIGSA: 3.0
[9]; rate 0.016 kg/ha
  Postemergence herbicidal rating CHEAL: 9.0
[9]; rate 0.032 kg/ha
  Postemergence herbicidal rating CHEAL: 9.0
[10]; rate 0.016 kg/ha
  Postemergence herbicidal rating IPOHE: 9.0
[10]; rate 0.032 kg/ha
  Postemergence herbicidal rating IPOHE: 9.0
[11]; rate 0.016 kg/ha
  Postemergence herbicidal rating AMBEL: 9.0
[11]; rate 0.032 kg/ha
  Postemergence herbicidal rating AMBEL: 9.0
[12]; rate 0.016 kg/ha
  Postemergence herbicidal rating ZEAMX: 6.5
[12]; rate 0.032 kg/ha
  Postemergence herbicidal rating ZEAMX: 6.5
[13]; rate 0.125 kg/ha
  Preemergence herbicidal rating SETVI: 3.0
[13]; rate 0.25 kg/ha
  Preemergence herbicidal rating SETVI: 7.0
[14]; rate 0.125 kg/ha
  Preemergence herbicidal rating ALMOY: 0.0
[14]; rate 0.25 kg/ha
  Preemergence herbicidal rating ALMOY: 0.0
[15]; rate 0.125 kg/ha
  Preemergence herbicidal rating GLXMA: 9.0
[15]; rate 0.25 kg/ha
  Preemergence herbicidal rating GLXMA: 9.0
[16]; rate 0.125 kg/ha
  Preemergence herbicidal rating ECHCG: 3.0
[16]; rate 0.25 kg/ha
  Preemergence herbicidal rating ECHCG: 4.0
[17]; rate 0.125 kg/ha
  Preemergence herbicidal rating TRZAW: 0.0
[17]; rate 0.25 kg/ha
  Preemergence herbicidal rating TRZAW: 1.0
[18]; rate 0.125 kg/ha
  Preemergence herbicidal rating ABUTH: 9.0
[18]; rate 0.25 kg/ha
  Preemergence herbicidal rating ABUTH: 9.0
[19]; rate 0.125 kg/ha
  Preemergence herbicidal rating XANST: 9.0
[19]; rate 0.25 kg/ha
  Preemergence herbicidal rating XANST: 9.0
[20]; rate 0.125 kg/ha
  Preemergence herbicidal rating DIGSA: 4.0
[20]; rate 0.25 kg/ha
  Preemergence herbicidal rating DIGSA: 4.0
[21]; rate 0.125 kg/ha
  Preemergence herbicidal rating CHEAL: 9.0
[21]; rate 0.25 kg/ha
  Preemergence herbicidal rating CHEAL: 9.0
[22]; rate 0.125 kg/ha
  Preemergence herbicidal rating IPOHE: 9.0
[22]; rate 0.25 kg/ha
  Preemergence herbicidal rating IPOHE: 9.0
[23]; rate 0.125 kg/ha
  Preemergence herbicidal rating AMBEL: 9.0
[23]; rate 0.25 kg/ha
  Preemergence herbicidal rating AMBEL: 9.0
[24]; rate 0.125 kg/ha
  Preemergence herbicidal rating ZEAMX: 0.0
[24]; rate 0.25 kg/ha
  Preemergence herbicidal rating ZEAMX: 2.0

## CC(C)N(C(C)C)S(=O)(=O)NC(=O)c1cc(-n2c(=O)cc(C(F)(F)F)n(C)c2=O)c(F)cc1Cl [Example 60]
[1]; rate 0.016 kg/ha
  Postemergence herbicidal rating SETVI: 8.0
[1]; rate 0.032 kg/ha
  Postemergence herbicidal rating SETVI: 9.0
[2]; rate 0.016 kg/ha
  Postemergence herbicidal rating ALMOY: 3.0
[2]; rate 0.032 kg/ha
  Postemergence herbicidal rating ALMOY: 3.0
[3]; rate 0.016 kg/ha
  Postemergence herbicidal rating GLXMA: 8.5
[3]; rate 0.032 kg/ha
  Postemergence herbicidal rating GLXMA: 8.5
[4]; rate 0.016 kg/ha
  Postemergence herbicidal rating ECHCG: 8.0
[4]; rate 0.032 kg/ha
  Postemergence herbicidal rating ECHCG: 7.0
[5]; rate 0.016 kg/ha
  Postemergence herbicidal rating TRZAW: 6.0
[5]; rate 0.032 kg/ha
  Postemergence herbicidal rating TRZAW: 6.0
[6]; rate 0.016 kg/ha
  Postemergence herbicidal rating ABUTH: 9.0
[6]; rate 0.032 kg/ha
  Postemergence herbicidal rating ABUTH: 9.0
[7]; rate 0.016 kg/ha
  Postemergence herbicidal rating XANST: 9.0
[7]; rate 0.032 kg/ha
  Postemergence herbicidal rating XANST: 9.0
[8]; rate 0.016 kg/ha
  Postemergence herbicidal rating DIGSA: 6.0
[8]; rate 0.032 kg/ha
  Postemergence herbicidal rating DIGSA: 7.0
[9]; rate 0.016 kg/ha
  Postemergence herbicidal rating CHEAL: 8.0
[9]; rate 0.032 kg/ha
  Postemergence herbicidal rating CHEAL: 9.0
[10]; rate 0.016 kg/ha
  Postemergence herbicidal rating IPOHE: 9.0
[10]; rate 0.032 kg/ha
  Postemergence herbicidal rating IPOHE: 9.0
[11]; rate 0.016 kg/ha
  Postemergence herbicidal rating AMBEL: 9.0
[11]; rate 0.032 kg/ha
  Postemergence herbicidal rating AMBEL: 9.0
[12]; rate 0.016 kg/ha
  Postemergence herbicidal rating ZEAMX: 8.0
[12]; rate 0.032 kg/ha
  Postemergence herbicidal rating ZEAMX: 8.0
[13]; rate 0.125 kg/ha
  Preemergence herbicidal rating SETVI: 5.0
[13]; rate 0.25 kg/ha
  Preemergence herbicidal rating SETVI: 9.0
[14]; rate 0.125 kg/ha
  Preemergence herbicidal rating ALMOY: 0.0
[14]; rate 0.25 kg/ha
  Preemergence herbicidal rating ALMOY: 0.0
[15]; rate 0.125 kg/ha
  Preemergence herbicidal rating GLXMA: 0.0
[15]; rate 0.25 kg/ha
  Preemergence herbicidal rating GLXMA: 6.0
[16]; rate 0.125 kg/ha
  Preemergence herbicidal rating ECHCG: 0.0
[16]; rate 0.25 kg/ha
  Preemergence herbicidal rating ECHCG: 4.0
[17]; rate 0.125 kg/ha
  Preemergence herbicidal rating TRZAW: 0.0
[17]; rate 0.25 kg/ha
  Preemergence herbicidal rating TRZAW: 0.0
[18]; rate 0.125 kg/ha
  Preemergence herbicidal rating ABUTH: 9.0
[18]; rate 0.25 kg/ha
  Preemergence herbicidal rating ABUTH: 9.0
[19]; rate 0.125 kg/ha
  Preemergence herbicidal rating XANST: 0.0
[19]; rate 0.25 kg/ha
  Preemergence herbicidal rating XANST: 4.0
[20]; rate 0.125 kg/ha
  Preemergence herbicidal rating DIGSA: 6.0
[20]; rate 0.25 kg/ha
  Preemergence herbicidal rating DIGSA: 6.0
[21]; rate 0.125 kg/ha
  Preemergence herbicidal rating CHEAL: 9.0
[21]; rate 0.25 kg/ha
  Preemergence herbicidal rating CHEAL: 9.0
[22]; rate 0.125 kg/ha
  Preemergence herbicidal rating IPOHE: 7.0
[22]; rate 0.25 kg/ha
  Preemergence herbicidal rating IPOHE: 6.0
[23]; rate 0.125 kg/ha
  Preemergence herbicidal rating AMBEL: 9.0
[23]; rate 0.25 kg/ha
  Preemergence herbicidal rating AMBEL: 9.0
[24]; rate 0.125 kg/ha
  Preemergence herbicidal rating ZEAMX: 0.0
[24]; rate 0.25 kg/ha
  Preemergence herbicidal rating ZEAMX: 0.0

Reference: US6689773B2, “Uracil substituted phenyl sulfamoyl carboxamides” (BASF Aktiengesellschaft, priority 2000, dated 2004)
